This is an account of results in patent publication US10093683B2, “Factor XIa inhibitors” (Merck Sharp & Dohme Corp., priority 2014, dated 2018).

Counter-ions that a name gives are not always drawn. Bounds are passed on as bounds.

The target of the first assay is human Factor XIa (Homo sapiens (Human), UniProt P03951). As to the kind of experiment: Factor XIa Assay. It is filed as biochemical. As to conditions: purified human Factor XIa 40 pM, Z-Gly-Pro-Arg-AFC 100 μM, pH 7.4; read-out: FXIa Ki. In outline: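 Purified human FXIa (40 pM final) hydrolysing fluorogenic Z-Gly-Pro-Arg-AFC (100 μM) in 50 mM HEPES pH 7.4, 150 mM NaCl, 5 mM CaCl2, 0.1% PEG 8000, at room temperature or 37° C. Initial velocities measured after enzyme–inhibitor equilibration; Ki from Vo/Vi versus [I], assuming competitive inhibition.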
human Factor XIa, sequence (P03951 388-625): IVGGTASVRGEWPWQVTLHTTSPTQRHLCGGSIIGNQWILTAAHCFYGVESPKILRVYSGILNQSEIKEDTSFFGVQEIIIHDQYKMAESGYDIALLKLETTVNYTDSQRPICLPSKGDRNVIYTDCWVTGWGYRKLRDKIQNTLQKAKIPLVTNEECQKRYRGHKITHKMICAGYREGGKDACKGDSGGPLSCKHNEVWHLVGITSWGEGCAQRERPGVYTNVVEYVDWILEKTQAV
human Factor XIa, sequence (P03951 19-387 partner): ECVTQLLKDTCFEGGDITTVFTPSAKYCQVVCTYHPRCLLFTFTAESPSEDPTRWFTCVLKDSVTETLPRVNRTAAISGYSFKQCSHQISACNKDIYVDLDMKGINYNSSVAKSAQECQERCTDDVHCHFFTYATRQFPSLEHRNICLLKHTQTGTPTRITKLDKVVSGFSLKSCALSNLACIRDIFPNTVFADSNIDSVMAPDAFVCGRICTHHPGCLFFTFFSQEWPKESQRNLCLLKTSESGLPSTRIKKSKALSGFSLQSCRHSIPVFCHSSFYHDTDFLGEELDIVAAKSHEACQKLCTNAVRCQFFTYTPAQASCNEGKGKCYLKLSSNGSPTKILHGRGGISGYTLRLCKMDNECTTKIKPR
Regarding `COC(=O)Nc1ccc(C(=O)N[C@@H](CC(=O)NC2CCOCC2)C(=O)N2CC[C@@]3(C2)OC(=O)Nc2ccc(Cl)cc23)cc1` [Example 89, methyl (4-(((S)-1-((R)-6-chloro-2-oxo-1,2-dihydrospiro[benzo[d][1,3]oxazine-4,3′-pyrrolidin]-1′-yl)-1,4-dioxo-4-((tetrahydro-2H-pyran-4-yl)amino)butan-2-yl)carbamoyl)phenyl)carbamate], the Ki (as a rule, a dissociation constant, usually derived from enzyme kinetics or from competition with a known ligand) amounted to 59.2 nM.

On to `O=C1Nc2ccc(Cl)cc2[C@]2(CCN(C(=O)[C@H](Cc3ccccc3)C(=O)Nc3ccc(C(=O)O)cc3)C2)O1` [Example 121b, 4-((R)-2-benzyl-3-((S)-6-chloro-2-oxo-1,2-dihydrospiro[benzo[d][1,3]oxazine-4,3′-pyrrolidin]-1′-yl)-3-oxopropanamido)benzoic acid], for which the Ki is no less than 5000 nM.

In the case of `COC(=O)Nc1ccc(-c2nnc(C(Cc3ccccc3)C(=O)N3CC[C@@]4(C3)OC(=O)Nc3ccc(Cl)c(F)c34)o2)cc1` (single isomer, unassigned) [Example 129B], the Ki is 320 nM.

`COC(=O)Nc1ccc(-c2nnc([C@H](Cc3ccccc3)C(=O)N3CC[C@@]4(C3)OC(=O)Nc3ccc(Cl)c(F)c34)o2)cc1` [Example 129A, methyl (4-(5-((S)-1-((R)-6-chloro-5-fluoro-2-oxo-1,2-dihydrospiro[benzo[d][1,3]oxazine-4,3′-pyrrolidin]-1′-yl)-1-oxo-3-phenylpropan-2-yl)-1,3,4-oxadiazol-2-yl)phenyl)carbamate]: the Ki was greater than 875 nM.

Regarding `CC(=O)Nc1ccc(S(=O)(=O)N[C@@H](Cc2ccccc2)C(=O)N2CCC3(C2)OC(=O)Nc2ccc(Cl)cc23)cc1` (stereo partly drawn) [Example 284, N-(4-(N-((2S)-1-(6-chloro-2-oxo-1,2-dihydrospiro[benzo[d][1,3]oxazine-4,3′-pyrrolidin]-1′-yl)-1-oxo-3-phenylpropan-2-yl)sulfamoyl)phenyl)acetamide], the Ki was no less than 5000 nM.

Regarding `COC(=O)Nc1ccc(C(=O)N[C@@H](CC(=O)N2CCOCC2)C(=O)N2CC[C@@]3(C2)OC(=O)Nc2ccc(Cl)cc23)cc1` [Example 88, methyl (4-(((S)-1-((R)-6-chloro-2-oxo-1,2-dihydrospiro[benzo[d][1,3]oxazine-4,3′-pyrrolidin]-1′-yl)-4-morpholino-1,4-dioxobutan-2-yl)carbamoyl)phenyl)carbamate], the inhibition constant Ki turned out to be 20 nM.

With `COC(=O)Nc1ccc(C(=O)N[C@@H](Cc2ccccc2)C(=O)N2CCC3(C2)NC(=O)Nc2ccc(Cl)cc23)cc1` (single isomer, unassigned) [Example 19a], the Ki was 5000 nM.

As for `COC(=O)Nc1ccc(C(=O)N[C@H](C(=O)N2CCC[C@@]3(C2)OC(=O)Nc2ccc(Cl)c(F)c23)C2CC2)cc1` [Example 68, methyl (4-(((S)-2-((R)-6-chloro-5-fluoro-2-oxo-1,2-dihydrospiro[benzo[d][1,3]oxazine-4,3′-piperidin]-1′-yl)-1-cyclopropyl-2-oxoethyl)carbamoyl)phenyl)carbamate], the Ki was 56.4 nM.

Consider `COC(=O)Nc1ccc2[nH]c([C@@H](Cc3ccccc3)C(=O)N3CC[C@@]4(C3)OC(=O)Nc3ccc(Cl)cc34)nc2c1` [Example 131c, methyl (2-((R)-1-((R)-6-chloro-2-oxo-1,2-dihydrospiro[benzo[d][1,3]oxazine-4,3′-pyrrolidin]-1′-yl)-1-oxo-3-phenylpropan-2-yl)-1H-benzo[d]imidazol-5-yl)carbamate], for which the Ki stood at 354 nM.

Staying with this assay, now noted: read-out: FXIa Ki.
With `CC(N[C@@H](Cc1ccccc1)C(=O)N1CC[C@@]2(C1)OC(=O)Nc1ccc(Cl)cc12)c1ccc2c(N)n[nH]c2c1` (stereo partly drawn) [Example 224, (4R)-1′-((1-(3-amino-1H-indazol-6-yl)ethyl)-L-phenylalanyl)-6-chlorospiro[benzo[d][1,3]oxazine-4,3′-pyrrolidin]-2(1H)-one dihydrochloride], the Ki was 8750 nM.

For `N#Cc1ccc(C(=O)N[C@@H](Cc2ccccc2)C(=O)N2CCC3(C2)OC(=O)Nc2ccc(Cl)cc23)cn1` (stereo partly shown) [Example 152], the Ki came to 1020 nM.

As to `COC(=O)Nc1ccc(C(=O)N[C@@H](Cc2ccccc2)C(=O)N2CCC3(C2)OC(=O)Nc2ccc(Cl)cc23)s1` (stereo partly drawn) [Example 196, Methyl (5-(((2S)-1-(6-chloro-2-oxo-1,2-dihydrospiro[benzo[d][1,3]oxazine-4,3′-pyrrolidin]-1′-yl)-1-oxo-3-phenylpropan-2-yl)carbamoyl)thiophen-2-yl)carbamate], the Ki is 63.4 nM.

`O=C1Nc2ccc(Cl)c(F)c2[C@@]2(CCCN(C(=O)[C@H](Cc3ccccc3)NC(=O)c3ccc(-c4nc(=O)o[nH]4)cc3)C2)O1` [Example 232, N-((S)-1-((R)-6-chloro-5-fluoro-2-oxo-1,2-dihydrospiro[benzo[d][1,3]oxazine-4,3′-piperidin]-1′-yl)-1-oxo-3-phenylpropan-2-yl)-4-(5-oxo-2,5-dihydro-1,2,4-oxadiazol-3-yl)benzamide]: the Ki is 258 nM.

For `O=C1Nc2ccc(Cl)cc2C2(CCN(C(=O)[C@H](Cc3ccccc3)NC(=O)c3ccc(CO)nc3)C2)O1` (stereo partly shown) [Example 158], the Ki was determined as 752 nM.

As to `COC(=O)Nc1ccc(C(=O)N[C@@H](CC2CC2)C(=O)N2CCC[C@@]3(C2)OC(=O)Nc2ccc(Cl)cc23)cn1` [Example 204], the Ki is 244 nM.

For `COC(=O)Nc1ccc(C(N[C@@H](Cc2ccccc2)C(=O)N2CCC3(C2)OC(=O)Nc2ccc(Cl)cc23)C(F)(F)F)cc1` (stereo partly drawn) [Example 223, Methyl (4-(1-(((S)-1-((R)-6-chloro-2-oxo-1,2-dihydrospiro[benzo[d][1,3]oxazine-4,3′-pyrrolidin]-1′-yl)-1-oxo-3-phenylpropan-2-yl)amino)-2,2,2-trifluoroethyl)phenyl)carbamate], the Ki was 8750 nM.

For `O=C1Nc2ccc(Cl)cc2C2(CCN(C(=O)[C@H](Cc3ccccc3)NC(=O)c3ccc(C(=O)O)cc3)C2)O1` (single isomer, unassigned) [Example 140b], the Ki worked out at 5000 nM.

Consider `O=C1Nc2ccc(Cl)c(F)c2[C@@]2(CCCN(C(=O)[C@H](Cc3ccccc3)NC(=O)c3ccc(=O)[nH]c3)C2)O1` [Example 246], for which the Ki is 77.8 nM.

As to `O=C1Nc2ccc(Cl)cc2C2(CCN(C(=O)[C@H](Cc3ccccc3)NC(=O)c3ccc4cn[nH]c4c3)C2)O1` (stereo partly shown) [Example 182], the inhibition constant (Ki) was determined as 137 nM.

As to `N#Cc1ccc(C(=O)N[C@@H](Cc2ccccc2)C(=O)N2CCC3(C2)OC(=O)Nc2ccc(Cl)cc23)cc1` (stereo partly drawn) [Example 150, N-((2S)-1-(6-chloro-2-oxo-1,2-dihydrospiro[benzo[d][1,3]oxazine-4,3′-pyrrolidin]-1′-yl)-1-oxo-3-phenylpropan-2-yl)-4-cyanobenzamide], the Ki was determined as 430 nM.

Turning to `O=C1Nc2ccc(Cl)cc2C2(CCN(C(=O)[C@H](Cc3ccccc3)NC(=O)c3ccc(NC(=O)C(F)(F)F)cc3)C2)O1` (stereo partly drawn) [Example 162, N-((2S)-1-(6-chloro-2-oxo-1,2-dihydrospiro[benzo[d][1,3]oxazine-4,3′-pyrrolidin]-1′-yl)-1-oxo-3-phenylpropan-2-yl)-4-(2,2,2-trifluoroacetamido)benzamide], the Ki was 594 nM.

Take `O=C1Nc2ccc(Cl)cc2C2(CCN(C(=O)[C@H](Cc3ccccc3)NC(=O)c3ccc4cc(C(=O)O)ccc4c3)C2)O1` (stereo partly shown) [Example 259]: the Ki was 298 nM.
